Here are results for four compounds from patent US5750562A (priority 1995, dated 1998).

In one data set the test system is HT-29 (human colon). Kind of data set: Cytotoxicity, HT-29 (human colon). It counts as cell-based. The settings on record: exposition time 72 h, RPMI 1640 + 20 mM HEPES + 2 mM L-glutamine. The method, then: (§1) IC50 s of compounds 10, 11and paclitaxel on 6 human
(§2) Standard conditions: basal medium RPMI 1640 + 20 mM HEPES + 2 mM

In the next data set the test system is L1210 (murine leukemia). Kind of data set: Cytotoxicity, L1210 (murine leukemia). The settings on record: Mus musculus, exposition time 48 h, RPMI 1640 + 20 mM HEPES + 2 mM L-glutamine. The format is cell-based.
The next data set deals with tumours. Kind of data set: Anti-tumoral activity (general statement). The note with it: in words, among the compounds of formula 1.
The subject of another data set is A121 (human ovarian). Put plainly: Cytotoxicity, A121 (human ovarian). The format is cell-based. The settings on record: exposition time 72 h, RPMI 1640 + 20 mM HEPES + 2 mM L-glutamine. The method, then: as §1, §2
The next data set deals with A549 (human NSCLC). Put plainly: Cytotoxicity, A549 (human NSCLC). The format is cell-based. The settings on record: exposition time 72 h, RPMI 1640 + 20 mM HEPES + 2 mM L-glutamine. The protocol:
as §1, §2

The subject of another data set is MCF7 (human breast). Put plainly: Cytotoxicity, MCF7 (human breast). It counts as cell-based. The note with it: exposition time 72 h, RPMI 1640 + 20 mM HEPES + 2 mM L-glutamine. The protocol:
as §1, §2

Another data set has as its system MCF7-ADR (resistant). Put plainly: cells. It counts as cell-based. The settings on record: Homo sapiens, NCI/ADR-RES, 72 h.
Another data set is described as follows: Cardiotoxic activity. The settings on record: in words, compared with taxol and its known derivatives.
The next data set relates to human tumours. The settings on record: background art, cited from earlier work.

The term IC50 denotes the midpoint of a concentration-inhibition curve. As to `CC(=O)O[C@@]12CO[C@@H]1C[C@H](O)[C@@]1(C)C(=O)C(=O)C3=C(C)[C@@H](OC(=O)[C@H](O)[C@H](CC(C)C)NC(=O)OC(C)(C)C)C[C@@](O)([C@@H](OC(=O)c4ccccc4)[C@H]21)C3(C)C` [Compound 10, 13-[(2R,3S)-3-ter-butoxycarbonylamino-2-hydroxy3-isobutyl-propanoyl]-10-deacetyl-10-dehydro-baccatine III], the IC50 with HT-29 (human colon) was found to be 0.4 ± 0.1 nM; with L1210 (murine leukemia) it was 0.6 ± 0.1 nM; in the data set with A121 (human ovarian), 0.8 ± 0.3 nM; in the data set with A549 (human NSCLC), 1.9 ± 0.3 nM; in the data set with MCF7 (human breast) it was 1.2 ± 0.2 nM. In the data set with tumours, the activity entry is “particularly active”.
In the case of `CCCCCC(=O)N[C@@H](CC(C)C)[C@@H](O)C(=O)O[C@@H]1C(C)=C2C(=O)C(=O)[C@@]3(C)[C@H]([C@H](OC(=O)c4ccccc4)[C@@]4(OC(=O)O[C@@H]14)C2(C)C)[C@]1(OC(C)=O)CO[C@@H]1C[C@@H]3O` [Compound 12, 13-[(2R,3S)-3-caproylamino-2-hydroxy-3-isobutyl-propanoyl]-10-dehydro-10-deacetyl 14β-hydroxy-baccatine III 1,14-carbonate], in the data set with tumours, the activity result was “particularly active”.
`CC(=O)O[C@@]12CO[C@@H]1C[C@H](O)[C@@]1(C)C(=O)C(=O)C3=C(C)[C@@H](OC(=O)[C@H](O)[C@H](CC(C)C)NC(=O)OC(C)(C)C)[C@@H]4OC(=O)O[C@]4([C@@H](OC(=O)c4ccccc4)[C@H]21)C3(C)C` [Compound 11, 13=[(2R,3S)-3-ter-butoxycarbonylamino-2-hydroxy-3-isobutyl-propanoyl]-10-dehydro-10-deacetyl-14β-hydroxy-baccatine III 1,14-carbonate]: the IC50 stood at 0.6 ± 0.4 nM with HT-29 (human colon); 2 ± 0.1 nM with L1210 (murine leukemia); 1.6 ± 0.2 nM in the data set on A121 (human ovarian); 2.1 ± 0.3 nM in the data set on A549 (human NSCLC); 0.8 ± 0.2 nM in the data set on MCF7 (human breast). Also, in the data set with tumours, the activity entry is recorded as “particularly active”.
With `CC(=O)O[C@H]1C(=O)[C@@]2(C)[C@H]([C@H](OC(=O)c3ccccc3)[C@]3(O)C[C@H](OC(=O)[C@H](O)[C@@H](NC(=O)c4ccccc4)c4ccccc4)C(C)=C1C3(C)C)[C@]1(OC(C)=O)CO[C@@H]1C[C@@H]2O` [Paclitaxel, reference compound], the IC50 is 395 ± 8.7 nM in the data set with MCF7-ADR (resistant); 6 ± 0.6 nM in the data set with HT-29 (human colon); 7 ± 3 nM in the data set on L1210 (murine leukemia); 3.7 ± 0.3 nM in the data set on A121 (human ovarian); 5.4 ± 0.5 nM in the data set on A549 (human NSCLC); 4.3 ± 0.1 nM with MCF7 (human breast). For the same compound, in the data set “Cardiotoxic activity”, the cardiotoxic activity entry was “contrary to taxol”. Moreover, in the data set on human tumours (different forms of human tumours), the anticancerogenic activity entry was “anticancerogenic activity on different forms of human tumours”. In the data set on human tumours, the resistance induction result is “induces resistance quickly”. Moreover, the “side-effects in clinical use” value with human tumours is reported as “serious side-effects”.
